{
  "source": "ChEMBL document CHEMBL1136460",
  "about": "“Novel oxazolidinone-quinolone hybrid antimicrobials” (Bioorg Med Chem Lett, 2003)",
  "key": {"Moraxella catarrhalis": {"test_system": "Moraxella catarrhalis", "assay": "Antibacterial activity against Moraxella catarrhalis (MC1002)", "assay_type": "functional"}, "Haemophilus influenzae": {"test_system": "Haemophilus influenzae", "assay": "Antibacterial activity against Haemophilus influenzae (HI1008)", "assay_type": "functional"}},
  "data": [
    {"smiles": "O=C(O)c1cn(C2CC2)c2cc(N3CCNCC3)c(F)cc2c1=O", "note": "[CIPROFLOXACIN]", "values": [
      {"measurement": "MIC", "setting": "Moraxella catarrhalis", "value": 0.03, "unit": "mg/L"},
      {"measurement": "MIC", "setting": "Haemophilus influenzae", "value": "≤ 0.06", "unit": "mg/L"}
    ]}
  ]
}
